{
  "source": "PubChem BioAssay AID2060602",
  "about": "(Molecular Pharmacology Branch, DTP, NCI, 2025)",
  "system": "648629-189-R-J1-PDC complex spheroids viability",
  "assay": "Anticancer human tumor 648629-189-R-J1-PDC patient-derived bladder carcinoma cell line growth inhibition [CLK]",
  "conditions": "for viability, T/C: stronger effect = lower value",
  "from_the_text": "A high-throughput screen of multi-cell type tumor spheroids was designed to identify active combinations of […] and targeted small molecules. Complex spheroids include a stromal component modeled by human endothelial cells (HUVEC) and fibroblasts modeled by human mesenchymal stem cells (MSCs). The concentration ranges selected for each drug and investigational agent were based upon clinically achievable concentrations if the clinical Cmax of the agent was known.\nCompounds. The drugs and investigational agents: cirtuvivint (SM08502; NSC835563), CC-671 (NSC850746), vemurafenib (NSC761431), tapotoclax (NSC804041), sotorasib (NSC818433), adagrasib (NSC831453), MRTX-1133 (NSC836407), BAY2416964 (NSC825713), copanlisib (NSC816437), inavolisib (NSC800729), abemaciclib (NSC768073), osimertinib (NSC779217), entinostat (NSC756642), eltanexor (KPT-8602, NSC794443), venetoclax (NSC766270), ceralasertib (NSC777638), bortezomib (NSC756655), olaparib (NSC753686), talazoparib (NSC767125), alisertib (NSC759677), peposertib (NSC802822), gemcitabine (NSC613327), 5-fluorouracil (NSC19893), SN-38 (NSC673596), oxaliplatin (NSC266046), paclitaxel (NSC125973), and doxorubicin (NSC123127), were obtained from the National Cancer Institute (NCI) Developmental Therapeutics Program Chemical Repository. The FDA-approved anticancer drug set is available from the Developmental Therapeutics Program at https://dtp.cancer.gov/organization/dscb/obtaining/available plates.htm. […] The stock solutions were prepared in dimethyl sulfoxide (DMSO, Sigma-Aldrich, St. Louis, MO, cat. D2650), except for the platinum complexes which were prepared in saline (Quality Biological, Gaithersburg, MD, cat. 114-055-101), at 800-fold the tested concentration and stored at -70 degrees C prior to their use. All drugs and investigational agents were tested over a range starting from a high concentration at or near the clinical Cmax and decreasing in half-log increments. If the clinical Cmax for an agent had not been determined, the highest concentration tested was 10 microM.\nCell Culture. All cells were maintained in an incubator at 37 degrees C and 5% CO2 with 95% humidity. The PDC lines were cultured according to standard operating procedures established by the NCI PDMR. Briefly, all PDCs were thawed and cultured in Matrigel-coated flasks prepared with a working solution of 1X Ham's F-12 nutrient mix, without supplementation (Invitrogen, Waltham, MA, cat. 11765054), 100 U/mL penicillin-streptomycin (Invitrogen, cat. 15140122), and 2.5% Matrigel (Corning Inc., Corning, NY, cat. 354248) for the first three passages. The 947758-054-R-J2-PDC line was cultured in 6B/Colon 1A media, which includes advanced DMEM/F-12 (Thermo Fisher Scientific, cat. 12634028), 10 mM HEPES (Thermo Fisher Scientific, cat. 15630080), 1X GlutaMAX supplement (Thermo Fisher Scientific, cat. 35050061), 0.1 mg/mL primocin (InvivoGen, cat. ant-pm-2), 10% defined fetal bovine serum, heat inactivated (HyClone Laboratories Inc., cat. SH30070.03HI), 1.25 mM N-Acetyl-L-cysteine (Sigma-Aldrich, cat. A9165), 10 mM nicotinamide (Sigma-Aldrich, cat. N0636), 1X B-27 supplement (Thermo Fisher Scientific, cat. 17504044), 1X N-2 supplement (Thermo Fisher Scientific, cat. 17502048), and 10 microM Y-27632 dihydrochloride (Tocris Bioscience, cat. 1254). The 876862-298-R-J1-PDC was cultured in 6E media, which includes all 6B/Colon 1A media components plus 50% L-WRN conditioned media (ATCC, cat. CRL-3276), 50 ng/mL recombinant human EGF recombinant protein (hEGF; Thermo Fisher Scientific, cat. PHG0311), 10 ng/mL recombinant human fibroblast growth factor 10 (hGFG-10; PeproTech, cat. 100-26), 1 ng/mL recombinant human fibroblast growth factor 2 (hFGF-2; PeproTech, cat. 100-18B), and 1 µM prostaglandin E2 (PGE2; Tocris, cat. 2296). The 227483-062-R1-J1-PDC line was cultured in Panc media, containing all 6E components except hFGF-2, with the addition of 500 nM SB-431542 (Selleckchem, cat. S1067) and 10 nM gastrin (Tocris, cat. 3006). […]",
  "note": "Several values for one entry are separate records, joined by “and”; a condition that tells them apart may be missing. Identical values can stand only once.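 Wherever viability, T/C is given: drug exposure lasted seven days before viability readout; 100% = DMSO vehicle control wells.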",
  "data": [
    {"smiles": "O=c1[nH]cc(F)c(=O)[nH]1", "note": "+ CNC(=O)c1ccc(Nc2nc(OC3CCCC3)c3c(-c4ccc5nc(C)oc5c4)c[nH]c3n2)c(OC)c1", "values": [
      {"measurement": "IC50", "setting": "curve of first compound, second compound 0.0316 µM", "value": 881, "unit": "nM"},
      {"measurement": "IC50", "setting": "curve of first compound, second compound 0.1 µM", "value": 535, "unit": "nM"},
      {"measurement": "IC50", "setting": "curve of first compound, second compound 0.316 µM", "value": "< 31.6", "unit": "nM"},
      {"measurement": "IC50", "setting": "curve of first compound, second compound 1 µM", "value": "< 31.6", "unit": "nM"},
      {"measurement": "IC50", "setting": "curve of first compound, second compound 3.16 µM", "value": "< 31.6", "unit": "nM"},
      {"measurement": "IC50", "setting": "curve of first compound, second compound 10 µM", "value": "< 31.6", "unit": "nM"},
      {"measurement": "viability, T/C", "setting": "second compound 0.0316 µM, first compound 0.0316 µM", "value": 107, "unit": "%"},
      {"measurement": "viability, T/C", "setting": "second compound 0.0316 µM, first compound 0.1 µM", "value": 95.1, "unit": "%"},
      {"measurement": "viability, T/C", "setting": "second compound 0.0316 µM, first compound 0.316 µM", "value": 77.4, "unit": "%"},
      {"measurement": "viability, T/C", "setting": "second compound 0.0316 µM, first compound 1 µM", "value": 45.8, "unit": "%"},
      {"measurement": "viability, T/C", "setting": "second compound 0.0316 µM, first compound 3.16 µM", "value": 33.2, "unit": "%"},
      {"measurement": "viability, T/C", "setting": "second compound 0.0316 µM, first compound 10 µM", "value": 32.5, "unit": "%"},
      {"measurement": "viability, T/C", "setting": "second compound 0.1 µM, first compound 0.0316 µM", "value": 79.9, "unit": "%"},
      {"measurement": "viability, T/C", "setting": "second compound 0.1 µM, first compound 0.1 µM", "value": 86.9, "unit": "%"},
      {"measurement": "viability, T/C", "setting": "second compound 0.1 µM, first compound 0.316 µM", "value": 64.8, "unit": "%"},
      {"measurement": "viability, T/C", "setting": "second compound 0.1 µM, first compound 1 µM", "value": 32.2, "unit": "%"},
      {"measurement": "viability, T/C", "setting": "second compound 0.1 µM, first compound 3.16 µM", "value": 23.9, "unit": "%"},
      {"measurement": "viability, T/C", "setting": "second compound 0.1 µM, first compound 10 µM", "value": 22.9, "unit": "%"},
      {"measurement": "viability, T/C", "setting": "second compound 0.316 µM, first compound 0.0316 µM", "value": 21, "unit": "%"},
      {"measurement": "viability, T/C", "setting": "second compound 0.316 µM, first compound 0.1 µM", "value": 23.6, "unit": "%"},
      {"measurement": "viability, T/C", "setting": "second compound 0.316 µM, first compound 0.316 µM", "value": 22.2, "unit": "%"},
      {"measurement": "viability, T/C", "setting": "second compound 0.316 µM, first compound 1 µM", "value": 11.9, "unit": "%"},
      {"measurement": "viability, T/C", "setting": "second compound 0.316 µM, first compound 3.16 µM", "value": 12.8, "unit": "%"},
      {"measurement": "viability, T/C", "setting": "second compound 0.316 µM, first compound 10 µM", "value": 10.3, "unit": "%"},
      {"measurement": "viability, T/C", "setting": "second compound 1 µM, first compound 0.0316 µM", "value": 15.8, "unit": "%"},
      {"measurement": "viability, T/C", "setting": "second compound 1 µM, first compound 0.1 µM", "value": 18.7, "unit": "%"},
      {"measurement": "viability, T/C", "setting": "second compound 1 µM, first compound 0.316 µM", "value": 15.7, "unit": "%"},
      {"measurement": "viability, T/C", "setting": "second compound 1 µM, first compound 1 µM", "value": 11.2, "unit": "%"},
      {"measurement": "viability, T/C", "setting": "second compound 1 µM, first compound 3.16 µM", "value": 9.79, "unit": "%"},
      {"measurement": "viability, T/C", "setting": "second compound 1 µM, first compound 10 µM", "value": 9.97, "unit": "%"},
      {"measurement": "viability, T/C", "setting": "second compound 3.16 µM, first compound 0.0316 µM", "value": 21.1, "unit": "%"},
      {"measurement": "viability, T/C", "setting": "second compound 3.16 µM, first compound 0.1 µM", "value": 20.4, "unit": "%"},
      {"measurement": "viability, T/C", "setting": "second compound 3.16 µM, first compound 0.316 µM", "value": 18.6, "unit": "%"},
      {"measurement": "viability, T/C", "setting": "second compound 3.16 µM, first compound 1 µM", "value": 10.2, "unit": "%"},
      {"measurement": "viability, T/C", "setting": "second compound 3.16 µM, first compound 3.16 µM", "value": 10.9, "unit": "%"},
      {"measurement": "viability, T/C", "setting": "second compound 3.16 µM, first compound 10 µM", "value": 10.6, "unit": "%"},
      {"measurement": "viability, T/C", "setting": "second compound 10 µM, first compound 0.0316 µM", "value": 17.8, "unit": "%"},
      {"measurement": "viability, T/C", "setting": "second compound 10 µM, first compound 0.1 µM", "value": 14.8, "unit": "%"},
      {"measurement": "viability, T/C", "setting": "second compound 10 µM, first compound 0.316 µM", "value": 17.4, "unit": "%"},
      {"measurement": "viability, T/C", "setting": "second compound 10 µM, first compound 1 µM", "value": 11.4, "unit": "%"},
      {"measurement": "viability, T/C", "setting": "second compound 10 µM, first compound 3.16 µM", "value": 11.5, "unit": "%"},
      {"measurement": "viability, T/C", "setting": "second compound 10 µM, first compound 10 µM", "value": 9.63, "unit": "%"}
    ]},
    {"smiles": "CCN1CCN(Cc2ccc(Nc3ncc(F)c(-c4cc(F)c5nc(C)n(C(C)C)c5c4)n3)nc2)CC1", "values": [
      {"measurement": "viability, T/C", "setting": "compound 0.00316 µM", "value": "104% and 106%"},
      {"measurement": "viability, T/C", "setting": "compound 0.01 µM", "value": "99.1% and 94.2%"},
      {"measurement": "viability, T/C", "setting": "compound 0.0316 µM", "value": 102, "unit": "%"},
      {"measurement": "viability, T/C", "setting": "compound 0.1 µM", "value": "101% and 93.4%"},
      {"measurement": "viability, T/C", "setting": "compound 0.316 µM", "value": "122% and 121%"},
      {"measurement": "viability, T/C", "setting": "compound 1 µM", "value": "124% and 117%"},
      {"measurement": "IC50", "setting": "curve of compound", "value": "> 1000", "unit": "nM"}
    ]}
  ]
}
